From patent publication US12377164B2, “Linkers and conjugates” (ASTRAZENECA AB, priority 2018, dated 2025)
Non-standard residues stand in square brackets, D forms with d. Residues, ends and D or L forms follow the SMILES beside them. *: point of attachment. Dolaproine = CO[C@@H]([C@@H]1CCCN1)[C@@H](C)C(=O)O; Dil = CC[C@H](C)[C@H](NC)[C@@H](CC(=O)O)OC; X1 = C[C@@H](N*)[C@@H](O)c1ccccc1; NMeV = CN[C@H](C(=O)O)C(C)C

What was measured:
[1] = test system: HER2-negative MCF7 and T47D cells; test: Cell viability (CellTiter-Glo), HER2-negative cells; type: cell-based; conditions: 96 h, HER2-negative cell lines, FIG. 2
Experimental: (§1) HER2-positive SKBR3 and BT474 cells were obtained from the American Type Culture Collection (ATCC) and HER2-negative MCF7 and T47D cells were obtained from the European Collection of Authenticated Cell Cultures (ECACC) and ATCC, respectively. SKBR3 cells were maintained in high glucose McCoy's 5A medium, supplemented with 10% heat-inactivated foetal-bovine serum (FBS), 50 U/mL penicillin and 50 μg/mL streptomycin. MCF7 cells were maintained in Dulbecco's Modified Eagle Medium (DMEM) supplemented with 10% heat-inactivated fetal-bovine serum (FBS), 2 mM L-glutamine, 50 U/mL penicillin and 50 μg/mL streptomycin. BT474 and T47D cell lines were maintained in RPM11640 medium supplemented with 10% heat-inactivated fetal-bovine serum (FBS), 2 mM L-glutamine, 50 U/mL penicillin and 50 μg/mL streptomycin. All cell lines were incubated at 37° C. with 5% CO2.
(§2) Cells were seeded in 96-well plates for 24 h at 37° C. with 5% CO2. SKBR3 cells were seeded at 15,000 cells/well, BT474 cells were seeded at 20,000 cells/well, MCF7 cells were seeded at 7,500 cells/well and T47D cells were seeded at 10,000 cells/well. […] Cell viability was measured using CellTiter-Glo viability assay (Promega) according to the manufacturer's instructions. Cell viability was plotted as a percentage of untreated cells.

[2] = test system: HER2-positive SKBR3 and BT474 cells; test: Cell viability (CellTiter-Glo), HER2-positive cells; type: cell-based; conditions: 96 h, HER2-positive cell lines, FIG. 2
Experimental: as §1, §2

[3] = Stability of model cysteine conjugates incubated with excess reduced L-glutathione (GSH), tracked via 1H NMR; type: physicochemical; conditions: 3 equivalents GSH, pH 7.4 buffer, 37° C., after two weeks
Experimental: The stability of conjugate 3 under physiological conditions was investigated by incubation with excess (3 equivalents) reduced L-glutathione (GSH) in pH 7.4 buffer (40% CD-3OD/NaPi—50 mM) at 37° C. The stability was tracked via ^1H NMR and almost no degradation (<5%) was observed after two weeks.

trastuzumab Fab = test: Trastuzumab Fab conjugation kinetic experiment (LC-MS); conditions: 10 and 20 equivalents of linker, after 15 minutes, 37° C.
Experimental: The mixtures were vortexed and incubated at 37° C. for 1 h. A solution of 8 (10 mM in DMSO) was added to each solution (final concentration equal to 10 and 20 equivalents) and the reaction mixture incubated at 37° C. At t=0, 5, 10, 15, 20, 30, 40 and 60 min, 0.5 μL was removed from each reaction, diluted with MilliQ water (9 μL) and quenched with 100 eq. of cysteine (5 mM in DMSO). LC-MS analysis was then used to quantify conversion.

Q: Which “cytotoxicity (cell viability)” value [1] does the source give for CC[C@H](C)[C@@H]([C@@H](CC(=O)N1CCC[C@H]1[C@H](OC)[C@@H](C)C(=O)N[C@H](C)[C@@H](O)c1ccccc1)OC)N(C)C(=O)[C@@H](NC(=O)[C@@H](NC)C(C)C)C(C)C [MMAE] (H-[NMeV]V[Dil][Dolaproine]-X1) here?
A: high levels of cytotoxicity

Q: What about the “cytotoxicity (cell viability)” value [2] of the same compound?
A: high levels of cytotoxicity

Q: For COC(=O)[C@H](CSCCc1ccnc(N)n1)NC(=O)OC(C)(C)C [compound 3], which degradation [3] is on record?
A: < 5%

Q: For COC(=O)[C@H](CSC1CC(=O)N(Cc2ccccc2)C1=O)NC(=O)OC(C)(C)C (stereo partly drawn) [compound 6, methyl S-(1-benzyl-2,5-dioxopyrrolidin-3-yl)-N-(tert-butoxycarbonyl)-L-cysteinate], which “conversion to the glutathione conjugate” value [3] is on record?
A: > 50%

Q: With C#CCCCCNc1nc(C=C)cc(C=C)n1 [compound 8, N-(hex-5-yn-1-yl)-4,6-divinylpyrimidin-2-amine] as the compound, how does the “re-bridging of the Fab chains” value (trastuzumab Fab) read?
A: > 90%
